Measurements: PMC10654507, “A cleavable chimeric peptide with targeting and killing domains enhances LPS neutralization and antibacterial properties against multi-drug resistant E. coli” (Communications Biology, 2023)
Values after ≈ are worked out from the molar mass of the structure shown. Residues, ends and D or L forms follow the SMILES beside them.

Assays:
[1] = test system: Staphylococcus aureus ATCC43300; format: cell-based; conditions: repeated three times; for MBC: lowest concentration giving 99.9% reduction of the inoculum; for MIC: microtiter broth dilution, 10^5 CFU/mL, 37 °C, 16 ~ 18 h
Experimental: (§1) The minimum inhibitory concentration (MIC) and minimum bactericidal concentration (MBC) of peptides were determined by the microtiter broth dilution method according to Clinical and Laboratory Standards Institute (CLSI) guidelines. […] PBS was used as the negative control. […] The MBC value was calculated as the lowest concentration of peptides resulting in a 99.9% reduction of the original inoculum. All experiments were repeated three times.

Escherichia coli CVCC195 = format: cell-based; conditions: repeated three times; for MBC: lowest concentration giving 99.9% reduction of the inoculum; for MIC: microtiter broth dilution, 10^5 CFU/mL, 37 °C, 16 ~ 18 h
Experimental: as §1

LPS [2] = experiment: Mouse survival, preventive treatment before lethal LPS challenge; format: in vivo; parameters: key to survival of mice, single-animal event: 1 represents a mouse death; 0 represents no death; conditions: for mouse survival at 7 days: 7 μmol/kg i.p. at 0 h, LPS 13.5 mg/kg i.p. at 6 h, five mice/group; for survival of mice, single-animal event: Fig. 7a source data, LPS challenge
Experimental: A sepsis mouse model established in our laboratory was used to evaluate the prevention effect of peptides. […] The survival rate of mice was recorded for 7 days. The mice injected with saline were used as negative control.

MDR E. coli CVCC195 [3] = experiment: Serum cytokines (TNF-α, IL-6, IL-1β, IL-10; ELISA) in E. coli-challenged mice; format: in vivo, mouse; parameters: unit not given beside the values; conditions: Fig. 5c-f source data, peptide + E. coli challenged mice, mean
Experimental: (§2) After E. coli or LPS challenge, the mice were sacrificed at 12 h and 24 h, respectively, and the sera were collected to detect inflammatory cytokines (such as tumor necrosis factor-α (TNF-α), interleukin-6 (IL-6), interleukin-1β (IL-1β), and interleukin-10 (IL-10)) using the enzyme linked immunosorbent assay (ELISA) kits. To evaluate the specific activity of intestinal alkaline phosphatase (IAP), a 2 cm segment of duodenum was rapidly intercepted from the mice and homogenized; the IAP levels in the supernatant were detected by ELISA. In addition, the lungs were collected from the mice infected by E. coli after 12 and 24 h, respectively and were homogenized in sterile PBS for the bacterial counts assay.

in vitro = in vitro ADME; conditions: for degradation in human serum: RP-HPLC (Supplementary Fig. 2)
RAW264.7 cells = experiment: Cytotoxicity, MTT method; format: cell-based; conditions: for RAW 264.7 cell survival: 128 μM; for cytotoxicity: low concentration (0 ~ 32 μM)
Experimental: RAW264.7 cells (2.5 × 10^4 cells/mL, 100 μL) were added into the 96-well plate and cultured at 37 °C in 5% CO2 for 24 h. After removing the medium and washing twice with PBS, 100 μL peptides (1, 2, 4, 8, 16, 32, 64 and 128 μM) were added to each well. PBS was served as the negative control. After incubation for 24 h, 20 μL MTT (5 mg/mL) was added into each well and incubated for another 4 h. Then, the supernatant was removed and 150 μL dimethylsulfoxide (DMSO) was added into the plate and shaken for 10 min. The absorbance of each well was measured at 570 nm and the survival rate of cells was calculated as follows: Survival (%) = [(Abspeptide/ Abscontrol)] × 100, where Abspeptide and Abscontrol present the absorbance of peptide and PBS control, respectively.

LPS [4] = experiment: Serum cytokines (TNF-α, IL-6, IL-1β, IL-10; ELISA) in LPS-challenged mice; format: in vivo, mouse; conditions: LPS-challenged mice pre-treated with 7 μmol/kg, range over sampling times (12 h, 24 h)
Experimental: as §2

[5] = Serum stability in mouse serum (RP-HPLC); format: in vitro ADME; conditions: 25% mouse serum; for remaining at 0.5 h, 0.5 mM / remaining at 1 h, 0.5 mM / remaining at 2 h, 0.5 mM / remaining at 4 h, 0.5 mM / remaining rate in mouse serum / remaining at 8 h, 0.5 mM: peptide 0.5 mM, mean of three; for remaining at 0.5 h, 0.5 mM / remaining at 1 h, 0.5 mM / remaining at 2 h, 0.5 mM / remaining at 4 h, 0.5 mM / remaining at 8 h, 0.5 mM: read-out: remaining rate in mouse serum; for remaining rate in mouse serum / remaining at 8 h, 0.5 mM: 8 h; for peptide remained intact in mouse serum: range from 2 h to 8 h of incubation
Experimental: Serum stability of R7 and its parent-L7 was tested as previously described with minor modifications[46],[53]. Briefly, each peptide was added to the 25% mouse serum to a final concentration of 0.5 mM; 250 µL aliquots of samples were taken at 0, 0.5, 1, 2, 4 and 8 h, and mixed with 20 µL 15% trichloroacetic acid (TCA). The samples were incubated at 4 °C for 15 min and centrifuged for 10 min at 12,000 rpm. The supernatants were analyzed by RP-HPLC or inhibition zone method. Moreover, after incubation in serum for 2 h, R7 was analyzed by matrix assisted laser desorption/ionization-time of flight mass spectrometry (MALDI-TOF MS) and high-performance liquid chromatography-mass spectrometry (HPLC-MS), respectively.

MDR E. coli CVCC195 [6] = experiment: Intestinal alkaline phosphatase (IAP) activity in duodenum, E. coli-challenged mice; format: in vivo, mouse; conditions: for IAP levels in mice: Fig. 5g source data, peptide + E. coli, mean; for IAP activity: duodenum, 12 h after E. coli infection, mice pre-treated with 7 μmol/kg peptide, ELISA
Experimental: as §2

[7] = test system: p65, p-p65, ERK1/2, p-ERK1/2 and IκBα; experiment: Western blotting of NF-κB and MAPK pathway proteins in lung tissues of LPS-challenged mice; format: in vivo, mouse; conditions: for IκBα/β-actin ratio / p-ERK1/2/ERK1/2 ratio / p-p65/p65 ratio: Supplementary Fig. 5b-d source data, lung tissues, peptide + LPS, mean; for ERK1/2 phosphorylation: lung tissues of 24 h, western blot
Experimental: Additionally, the lung tissues of 24 h were homogenized and suspended in […] buffer, and the protein levels of supernatants were quantified using a Bradford protein assay kit. A total of 30 μg proteins were analyzed on a sodium dodecyl sulfate-polyacrylamide gel electrophoresis gel and were immunoblotted onto PVDF membranes, followed by an incubation with the primary antibodies of p65, p-p65, extracellular signal-regulated kinase (ERK)1/2, p-ERK1/2 and IκBα overnight at 4 °C. After washing, the blots were incubated with the peroxidase conjugated goat-rabbit or goat-mouse antibodies. Relative protein expression levels were quantified by a densitometric measurement of chemiluminescence (ECL) reaction band. β-actin was used as the internal reference. […]
pathways in lung tissues.
LPS. a The protein levels of p65, p-p65, ERK1/2, p-ERK1/2, and IκBα in lungs were analyzed by western blotting. b Densitometric analysis of p-ERK1/2/ERK1/2 ratio. c. Densitometric analysis of p-p65/p65 ratio. d Densitometric analysis of IκBα/β-actin ratio. All data were analyzed with one-way ANOVA, and data are means ± SD (n = 3). p-values< 0.05 were considered significant. **, p < 0.01, […]
(1 picture or pasted object on this page, not shown here)

[8] = event at day 2, one cell per mouse
[9] = event at day 7, one cell per entry
[10] = Supplementary Fig. 2b source data, human serum, RP-HPLC, mean, read-out: remaining rate in human serum

| Compound | MBC [1] | MIC [1] | MBC (Escherichia coli CVCC195) | MIC (Escherichia coli CVCC195) | mouse survival at 7 days (LPS [2]) | survival of mice, single-animal event (LPS [2]; [8]) | survival of mice, single-animal event (LPS [2]; [9]) | TNFα (MDR E. coli CVCC195 [3]; 12 h) | TNFα (MDR E. coli CVCC195 [3]; 24 h) | degradation in human serum (in vitro) | remaining at 0.5 h, 0.5 mM (in vitro; [10]) | remaining at 1 h, 0.5 mM (in vitro; [10]) | remaining at 2 h, 0.5 mM (in vitro; [10]) | remaining at 4 h, 0.5 mM (in vitro; [10]) | RAW 264.7 cell survival (RAW264.7 cells) | cytotoxicity (RAW264.7 cells) | serum IL-1β concentration (LPS [4]) | serum IL-6 concentration (LPS [4]) | serum IL-10 concentration (LPS [4]) | serum TNF-α concentration (LPS [4]) | also measured |
| --- | --- | --- | --- | --- | --- | --- | --- | --- | --- | --- | --- | --- | --- | --- | --- | --- | --- | --- | --- | --- | --- |
| CSCC[C@H](NC(=O)[C@H](CCCNC(=N)N)NC(=O)[C@H](Cc1c[nH]c2ccccc12)NC(=O)[C@H](C)NC(=O)[C@H](Cc1c[nH]c2ccccc12)NC(=O)[C@H](CCCNC(=N)N)NC(=O)[C@H](Cc1c[nH]c2ccccc12)NC(=O)[C@H](C)NC(=O)[C@H](CCCCN)NC(=O)[C@@H](N)Cc1ccccc1)C(=O)N[C@@H](CCCCN)C(=O)N[C@@H](CCCCN)C(=O)N[C@@H](CC(C)C)C(=O)N[C@@H](C)C(=O)N[C@@H](C)C(=O)N1CCC[C@H]1C(=O)N[C@@H](CO)C(=O)O [L7] (H-FKAWRWAWRMKKLAAPS-OH) | 18.1 µM (≈ 38.6 µg/mL) | 18.1 µM (≈ 38.6 µg/mL) | 4.53 µM (≈ 9.67 µg/mL) | 2.26 µM (≈ 4.82 µg/mL) | 40% | 1 | 0 | 75.496 | 66.872 | almost identical to those in mouse serum | 86.9% | 51.4% | 32% | 4.71% | 87.7% | no hemolysis and cytotoxicity | 24.6 ~ 26.1 pg/mL | 113.2 ~ 120.2 pg/mL | 11.5 ~ 12.0 pg/mL | 56.4 ~ 68.0 pg/mL | remaining at 8 h, 0.5 mM (in vitro; Supplementary Fig. 2b source data, human serum, 8 h, RP-HPLC, mean, read-out: remaining rate in human serum): 0.839%; remaining at 0.5 h, 0.5 mM [5]: 74.5%; remaining at 1 h, 0.5 mM [5]: 62.7%; remaining at 2 h, 0.5 mM [5]: 25.3%; remaining at 4 h, 0.5 mM [5]: 6.01%; remaining rate in mouse serum [5]: completely undetectable; remaining at 8 h, 0.5 mM [5]: 0.829%; peptide remained intact in mouse serum [5]: 25.3 ~ 0.8%; IAP levels in mice (MDR E. coli CVCC195 [6]; 12 h): 646.785; IAP levels in mice (MDR E. coli CVCC195 [6]; 24 h): 420.095; IAP activity (MDR E. coli CVCC195 [6]): 646.8 U/g; IκBα/β-actin ratio [7]: 1.143; p-ERK1/2/ERK1/2 ratio [7]: 1.133; p-p65/p65 ratio [7]: 1.216; ERK1/2 phosphorylation [7]: not markedly attenuated |
| CSCC[C@H](NC(=O)[C@H](CCCNC(=N)N)NC(=O)[C@H](Cc1c[nH]c2ccccc12)NC(=O)[C@H](C)NC(=O)[C@H](Cc1c[nH]c2ccccc12)NC(=O)[C@H](CCCNC(=N)N)NC(=O)[C@H](Cc1c[nH]c2ccccc12)NC(=O)[C@H](C)NC(=O)[C@H](CCCCN)NC(=O)[C@H](Cc1ccccc1)NC(=O)[C@H](CCCNC(=N)N)NC(=O)[C@H](CCCNC(=N)N)NC(=O)[C@H](CCCCN)NC(=O)[C@H](CCCNC(=N)N)NC(=O)[C@H](CCCCN)NC(=O)[C@H](Cc1ccccc1)NC(=O)[C@H](Cc1ccccc1)NC(=O)[C@H](CO)NC(=O)[C@H](C)NC(=O)[C@H](CCCNC(=N)N)NC(=O)[C@@H](NC(=O)[C@H](CCCCN)NC(=O)[C@H](Cc1c[nH]c2ccccc12)NC(=O)[C@H](CCCNC(=N)N)NC(=O)CNC(=O)[C@H](CCC(N)=O)NC(=O)[C@@H](NC(=O)[C@@H](N)CCCNC(=N)N)C(C)C)C(C)C)C(=O)N[C@@H](CCCCN)C(=O)N[C@@H](CCCCN)C(=O)N[C@@H](CC(C)C)C(=O)N[C@@H](C)C(=O)N[C@@H](C)C(=O)N1CCC[C@H]1C(=O)N[C@@H](CO)C(=O)O [R7] (H-RVQGRWKVRASFFKRKRRFKAWRWAWRMKKLAAPS-OH) | 2.26 µM (≈ 10.1 µg/mL) | 2.26 µM (≈ 10.1 µg/mL) | 1.13 µM (≈ 5.06 µg/mL) | 1.13 µM (≈ 5.06 µg/mL) | 100% | 0 | 0 | 51.956 | 49.098 | almost identical to those in mouse serum | 58.6% | 51.9% | 45.6% | 23% | 58.2% | no hemolysis and cytotoxicity | 16.9 ~ 17.5 pg/mL | 92.5 ~ 99.3 pg/mL | 13.9 ~ 14.5 pg/mL | 43.1 ~ 46.1 pg/mL | remaining at 0.5 h, 0.5 mM [5]: 101%; remaining at 1 h, 0.5 mM [5]: 81.6%; remaining at 2 h, 0.5 mM [5]: 29.8%; remaining at 4 h, 0.5 mM [5]: 21.2%; remaining rate in mouse serum [5]: ~ 20%; remaining at 8 h, 0.5 mM [5]: 21.7%; peptide remained intact in mouse serum [5]: 29.8 ~ 21.7%; IAP levels in mice (MDR E. coli CVCC195 [6]; 12 h): 514.632; IAP levels in mice (MDR E. coli CVCC195 [6]; 24 h): 541.948; IAP activity (MDR E. coli CVCC195 [6]): 514.6 U/g; IκBα/β-actin ratio [7]: 1.322; p-ERK1/2/ERK1/2 ratio [7]: 1.134; p-p65/p65 ratio [7]: 0.775; ERK1/2 phosphorylation [7]: not markedly attenuated |
